Values after ≈ are worked out from the molar mass of the structure shown.
Assays:
D(2) dopamine receptor = D(2) dopamine receptor (Homo sapiens, UniProt P14416); test: Partial agonistic activity at human dopamine D2 receptor expressed in CHO cells by assay [35S]GTPgamma assay with scintillation proximity affinity assay; assay type: functional, cell-based
D(3) dopamine receptor = D(3) dopamine receptor (Homo sapiens, UniProt P35462); test: Antagonist activity at human dopamine D3 receptor expressed in CHO cells assessed as inhibition of quinperol-induced [35S]GTPgamma binding by scintillation proximity affinity assay; assay type: functional, cell-based
[1] = Solubility of the compound; assay type: physicochemical
[2] = Lipophilicity, log D at pH 7.4; assay type: physicochemical; conditions: buffer
Liver microsomes = test: Intrinsic clearance in rat liver microsomes; assay type: ADME, Microsome
[3] = Intrinsic clearance in human liver microsomes; assay type: ADME, Microsome
Cytochrome P450 2D6 = Cytochrome P450 2D6 (Homo sapiens, UniProt P10635); test: Inhibition of human recombinant CYP2D6 by spectrofluorimetry; assay type: ADME
[4] = target: T1, 5-hydroxytryptamine receptor 1A (Homo sapiens, UniProt P08908); test: Binding affinity to 5HT1A receptor
T1 sequence (P08908 whole entry): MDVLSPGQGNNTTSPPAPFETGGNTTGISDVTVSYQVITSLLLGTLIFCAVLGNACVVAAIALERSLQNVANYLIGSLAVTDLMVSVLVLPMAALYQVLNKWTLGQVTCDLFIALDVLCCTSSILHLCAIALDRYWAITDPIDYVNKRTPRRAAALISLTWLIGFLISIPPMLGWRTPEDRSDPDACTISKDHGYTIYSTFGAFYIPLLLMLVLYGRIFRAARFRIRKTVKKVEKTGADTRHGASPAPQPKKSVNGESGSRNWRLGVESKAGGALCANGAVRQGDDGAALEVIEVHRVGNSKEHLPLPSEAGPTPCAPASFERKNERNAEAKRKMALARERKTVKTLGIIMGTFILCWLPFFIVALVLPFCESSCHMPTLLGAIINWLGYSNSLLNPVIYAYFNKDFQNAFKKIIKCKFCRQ

[5] = target: 5-hydroxytryptamine receptor 1D (Homo sapiens, UniProt P28221); test: Binding affinity to 5HT1D receptor
[6] = target: 5-hydroxytryptamine receptor 2A (Homo sapiens, UniProt P28223); test: Activity at 5HT2A receptor
[7] = target: T2, Alpha-1B adrenergic receptor (Homo sapiens, UniProt P35368); test: Activity at Alpha-1B adrenergic receptor
T2 sequence (P35368 whole entry): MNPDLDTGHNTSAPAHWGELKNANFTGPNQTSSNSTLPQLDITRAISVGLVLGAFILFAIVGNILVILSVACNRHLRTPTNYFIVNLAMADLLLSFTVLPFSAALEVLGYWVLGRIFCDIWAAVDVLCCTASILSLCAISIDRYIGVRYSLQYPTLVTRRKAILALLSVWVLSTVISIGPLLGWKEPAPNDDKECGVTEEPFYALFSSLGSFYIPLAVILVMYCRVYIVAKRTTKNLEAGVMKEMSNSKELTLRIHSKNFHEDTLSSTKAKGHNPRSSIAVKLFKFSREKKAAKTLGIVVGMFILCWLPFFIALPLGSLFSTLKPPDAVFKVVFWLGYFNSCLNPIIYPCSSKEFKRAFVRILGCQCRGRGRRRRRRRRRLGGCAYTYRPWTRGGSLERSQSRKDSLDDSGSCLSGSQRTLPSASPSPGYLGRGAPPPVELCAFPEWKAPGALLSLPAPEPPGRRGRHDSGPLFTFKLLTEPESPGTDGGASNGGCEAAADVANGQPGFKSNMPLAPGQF

Histamine H1 receptor = Histamine H1 receptor (Homo sapiens, UniProt P35367); test: Activity at histamine H1 receptor
[8] = target: Voltage-gated inwardly rectifying potassium channel KCNH2 (Homo sapiens, UniProt Q12809); test: Displacement of [3H]dofetilide from human ERG by scintillation proximity assay
Sequence of Voltage-gated inwardly rectifying potassium channel KCNH2 (Q12809 whole entry): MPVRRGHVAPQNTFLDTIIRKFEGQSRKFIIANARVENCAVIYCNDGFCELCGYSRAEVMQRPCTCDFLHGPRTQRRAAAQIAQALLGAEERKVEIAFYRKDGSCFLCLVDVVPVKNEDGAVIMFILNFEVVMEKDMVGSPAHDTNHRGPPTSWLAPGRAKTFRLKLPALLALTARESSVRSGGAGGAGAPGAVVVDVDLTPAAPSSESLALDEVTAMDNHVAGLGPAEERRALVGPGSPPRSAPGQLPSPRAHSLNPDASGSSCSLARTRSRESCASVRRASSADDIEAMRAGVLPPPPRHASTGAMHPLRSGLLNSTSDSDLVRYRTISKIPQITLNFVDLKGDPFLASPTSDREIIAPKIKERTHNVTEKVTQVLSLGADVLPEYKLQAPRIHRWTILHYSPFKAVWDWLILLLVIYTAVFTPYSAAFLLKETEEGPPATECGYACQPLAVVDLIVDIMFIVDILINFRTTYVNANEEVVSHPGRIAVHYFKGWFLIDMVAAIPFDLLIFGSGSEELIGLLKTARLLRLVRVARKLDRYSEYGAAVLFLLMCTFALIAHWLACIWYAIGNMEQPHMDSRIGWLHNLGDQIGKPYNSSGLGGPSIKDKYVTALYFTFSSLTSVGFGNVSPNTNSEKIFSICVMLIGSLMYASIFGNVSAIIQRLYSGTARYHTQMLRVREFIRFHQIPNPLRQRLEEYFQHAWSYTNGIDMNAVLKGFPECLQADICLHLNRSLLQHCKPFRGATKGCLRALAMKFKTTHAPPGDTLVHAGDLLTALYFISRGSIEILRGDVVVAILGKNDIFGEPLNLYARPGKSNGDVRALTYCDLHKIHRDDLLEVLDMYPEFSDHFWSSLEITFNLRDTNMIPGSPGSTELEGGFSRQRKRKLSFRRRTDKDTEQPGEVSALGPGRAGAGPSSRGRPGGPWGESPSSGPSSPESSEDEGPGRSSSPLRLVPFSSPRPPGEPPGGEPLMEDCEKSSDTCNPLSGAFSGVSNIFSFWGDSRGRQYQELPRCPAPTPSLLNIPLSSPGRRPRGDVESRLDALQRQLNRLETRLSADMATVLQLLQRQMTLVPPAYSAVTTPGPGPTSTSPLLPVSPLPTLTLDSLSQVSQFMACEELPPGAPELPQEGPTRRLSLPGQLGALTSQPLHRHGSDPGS

Sequence of D(2) dopamine receptor (P14416 whole entry): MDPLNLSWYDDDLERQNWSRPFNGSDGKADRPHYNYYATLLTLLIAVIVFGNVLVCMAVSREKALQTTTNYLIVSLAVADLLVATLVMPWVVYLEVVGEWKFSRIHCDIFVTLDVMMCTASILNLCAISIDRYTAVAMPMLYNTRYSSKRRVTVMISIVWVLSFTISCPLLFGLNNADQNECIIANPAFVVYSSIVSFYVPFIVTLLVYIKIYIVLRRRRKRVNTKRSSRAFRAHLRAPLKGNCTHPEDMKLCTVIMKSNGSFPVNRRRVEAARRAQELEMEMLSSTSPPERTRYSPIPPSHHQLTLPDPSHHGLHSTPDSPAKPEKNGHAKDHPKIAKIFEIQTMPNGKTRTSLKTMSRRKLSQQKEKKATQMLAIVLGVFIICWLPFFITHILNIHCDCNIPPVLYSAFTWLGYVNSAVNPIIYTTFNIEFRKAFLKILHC
Sequence of D(3) dopamine receptor (P35462 whole entry): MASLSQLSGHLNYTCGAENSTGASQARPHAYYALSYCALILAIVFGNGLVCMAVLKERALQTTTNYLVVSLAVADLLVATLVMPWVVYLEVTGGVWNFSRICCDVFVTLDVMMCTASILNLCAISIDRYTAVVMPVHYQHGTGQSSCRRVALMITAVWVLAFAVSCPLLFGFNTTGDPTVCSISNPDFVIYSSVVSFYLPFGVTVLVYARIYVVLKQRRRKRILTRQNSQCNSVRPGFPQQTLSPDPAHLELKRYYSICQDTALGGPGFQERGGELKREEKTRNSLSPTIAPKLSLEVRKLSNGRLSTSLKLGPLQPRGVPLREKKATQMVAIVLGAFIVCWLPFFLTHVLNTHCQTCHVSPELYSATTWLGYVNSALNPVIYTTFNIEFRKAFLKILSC
Sequence of 5-hydroxytryptamine receptor 2A (P28223 whole entry): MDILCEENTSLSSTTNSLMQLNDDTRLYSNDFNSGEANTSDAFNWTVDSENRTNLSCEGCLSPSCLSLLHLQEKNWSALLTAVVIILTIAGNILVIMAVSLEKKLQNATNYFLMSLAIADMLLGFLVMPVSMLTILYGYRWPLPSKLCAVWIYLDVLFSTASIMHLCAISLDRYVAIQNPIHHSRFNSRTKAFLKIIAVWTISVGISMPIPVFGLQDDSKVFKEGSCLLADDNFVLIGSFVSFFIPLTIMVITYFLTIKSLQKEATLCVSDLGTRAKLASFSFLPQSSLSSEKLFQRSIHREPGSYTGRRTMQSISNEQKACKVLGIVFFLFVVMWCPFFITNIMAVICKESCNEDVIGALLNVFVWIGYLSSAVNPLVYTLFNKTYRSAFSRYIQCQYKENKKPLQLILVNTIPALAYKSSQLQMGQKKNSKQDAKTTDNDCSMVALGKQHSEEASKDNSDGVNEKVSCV
Sequence of Cytochrome P450 2D6 (P10635 whole entry): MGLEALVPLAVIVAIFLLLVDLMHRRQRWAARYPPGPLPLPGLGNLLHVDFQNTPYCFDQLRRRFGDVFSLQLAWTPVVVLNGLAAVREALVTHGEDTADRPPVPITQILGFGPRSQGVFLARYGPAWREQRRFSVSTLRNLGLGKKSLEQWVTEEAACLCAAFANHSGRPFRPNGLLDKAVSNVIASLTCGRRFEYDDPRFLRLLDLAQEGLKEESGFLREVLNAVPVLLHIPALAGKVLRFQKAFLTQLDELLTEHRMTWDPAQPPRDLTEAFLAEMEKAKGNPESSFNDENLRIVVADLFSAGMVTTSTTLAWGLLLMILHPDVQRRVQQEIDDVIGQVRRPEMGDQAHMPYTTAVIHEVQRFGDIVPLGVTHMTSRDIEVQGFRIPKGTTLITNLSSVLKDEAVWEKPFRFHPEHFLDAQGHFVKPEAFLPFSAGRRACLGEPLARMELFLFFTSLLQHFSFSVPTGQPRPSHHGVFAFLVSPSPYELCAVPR
Sequence of 5-hydroxytryptamine receptor 1D (P28221 whole entry): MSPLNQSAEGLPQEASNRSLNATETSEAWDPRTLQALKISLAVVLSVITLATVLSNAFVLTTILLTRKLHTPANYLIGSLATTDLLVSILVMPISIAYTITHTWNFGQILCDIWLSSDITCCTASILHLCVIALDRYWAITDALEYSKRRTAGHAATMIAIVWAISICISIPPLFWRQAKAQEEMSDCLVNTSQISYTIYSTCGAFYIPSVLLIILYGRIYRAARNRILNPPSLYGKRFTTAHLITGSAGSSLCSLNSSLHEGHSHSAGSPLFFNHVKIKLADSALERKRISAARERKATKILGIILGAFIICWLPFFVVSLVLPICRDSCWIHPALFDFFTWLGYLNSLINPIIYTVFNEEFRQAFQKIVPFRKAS
Sequence of Histamine H1 receptor (P35367 whole entry): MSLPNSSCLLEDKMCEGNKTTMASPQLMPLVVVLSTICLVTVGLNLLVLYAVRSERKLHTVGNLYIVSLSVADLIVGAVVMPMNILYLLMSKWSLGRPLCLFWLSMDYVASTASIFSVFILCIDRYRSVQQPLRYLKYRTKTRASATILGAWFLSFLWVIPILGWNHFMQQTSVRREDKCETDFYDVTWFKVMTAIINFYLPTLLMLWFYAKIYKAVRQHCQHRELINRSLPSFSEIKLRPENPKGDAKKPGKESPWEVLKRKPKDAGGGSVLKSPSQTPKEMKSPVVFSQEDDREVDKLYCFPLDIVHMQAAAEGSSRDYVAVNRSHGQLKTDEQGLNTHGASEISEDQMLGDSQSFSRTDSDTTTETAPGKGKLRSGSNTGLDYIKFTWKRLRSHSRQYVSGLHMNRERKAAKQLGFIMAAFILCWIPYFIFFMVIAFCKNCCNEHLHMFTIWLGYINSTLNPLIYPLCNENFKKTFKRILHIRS

Structure (SMILES) | EC50 (D(2) dopamine receptor) | Ki (D(2) dopamine receptor) | EC50 (D(3) dopamine receptor) | Ki (D(3) dopamine receptor) | further results
O=C1N(CCN2CCCCCC2)CCN1c1ccc(F)cc1 | 10 nM | 63.1 nM | > 3160 nM | 251 nM | –
O=S1(=O)N(CCN2CCCCCC2)CCN1c1cccc(Cl)c1 | 126 nM | 200 nM | > 3160 nM | 316 nM | –
O=C1N(CC2CCCCN2)CCN1c1cccc(C(F)(F)F)c1 (stereo not drawn) | > 7940 nM | 20 nM | > 3160 nM | 0.251 nM | –
O=C1N(CCN2CCCCCC2)CCN1c1cccnc1 | 7.94 nM | 100 nM | > 3160 nM | 79.4 nM | –
O=C1N(CC2CCCCN2)CCN1c1cccnc1 (stereo not drawn) | 501 nM | > 631 nM | > 3160 nM | > 631 nM | –
O=C1N(CC2CCCNC2)CCN1c1cccc(Cl)c1 (stereo not drawn) | > 7940 nM | > 631 nM | > 3160 nM | > 631 nM | –
COc1cccc(N2CCN(CCN3CCCCCC3)C2=O)c1 | > 7940 nM | 39.8 nM | > 3160 nM | 50.1 nM | –
O=C1N(CCN2CCCCCC2)CCN1c1ccc(F)c(Cl)c1 | 10 nM | 15.8 nM | > 3160 nM | 25.1 nM | –
Cc1ccccc1N1CCN(CCN2CCCCCC2)C1=O | > 7940 nM | > 631 nM | > 3160 nM | > 631 nM | –
O=C1N(CC2CCNCC2)CCN1c1cccc(Cl)c1 | > 7940 nM | > 631 nM | > 3160 nM | > 631 nM | –
O=C1N(CCN2CCCCCC2)CCN1c1ccncc1 | > 3160 nM | 631 nM | > 3160 nM | > 631 nM | –
O=C1N(CCN2CCCCCC2)CCN1c1ccc(Cl)cc1 | 50.1 nM | 100 nM | > 3160 nM | 79.4 nM | –
O=C1N(CCN2CCCCCC2)CCN1c1cccc(C(F)(F)F)c1 | > 7940 nM | 1.58 nM | > 3160 nM | 1 nM | –
Cc1cccc(N2CCN(CCN3CCCCCC3)C2=O)c1 | 10 nM | 25.1 nM | > 3160 nM | 79.4 nM | –

Continued, in another order:

EC50 (D(2) dopamine receptor) | Ki (D(2) dopamine receptor) | EC50 (D(3) dopamine receptor) | Ki (D(3) dopamine receptor) | Structure (SMILES) | further results
0.631 nM | 7.94 nM | > 3160 nM | 63.1 nM | O=C1N(CCN2CCCCCC2)CCN1c1ccccc1 | –
0.794 nM | 2.51 nM | > 3160 nM | 15.8 nM | O=C1N(CCN2CCCCCC2)CCN1c1cccc(F)c1 | –
> 7940 nM | 0.631 nM | > 3160 nM | 1.58 nM | O=C1N(CCN2CCCCCC2)CCN1c1cc(Cl)cc(Cl)c1 | –
1 nM | 10 nM | > 3160 nM | 5.01 nM | O=C1N(CCN2CCCCCC2)CCN1c1cccc(Cl)c1 | –
> 7940 nM | 631 nM | > 3160 nM | 126 nM | O=c1n(CCCN2CCCCCC2)ccn1-c1cccc(Cl)c1 | –
> 7940 nM | 50.1 nM | > 3160 nM | 126 nM | Cc1ccc(N2CCN(CCN3CCCCCC3)C2=O)cc1 | –
126 nM | 398 nM | > 3160 nM | > 631 nM | O=c1n(CCN2CCCCCC2)ccn1-c1cccc(Cl)c1 | –
2.51 nM | 15.8 nM | > 3160 nM | 3.98 nM | CN1CCCCC1CN1CCN(c2cccc(Cl)c2)C1=O (stereo not drawn) | –
0.631 nM | 79.4 nM | > 3160 nM | 3.98 nM | O=C1N(CC2CCCCN2)CCN1c1cccc(Cl)c1 (stereo not drawn) | solubility [1]: 148 µg/mL (≈ 504 µM); logD [2]: 1.24; CL (Liver microsomes): 23.7 mL/min/g; CLint scaled [3]: 3.4 mL/min/g; IC50 (Cytochrome P450 2D6): 1000 nM; EC50 [4]: 794 nM; EC50 [5]: 501 nM; Ki [6]: > 1580 nM; Ki [7]: > 251 nM; Ki (Histamine H1 receptor): > 2510 nM; IC50 [8]: 7940 nM

— ChEMBL document CHEMBL1155385, “The identification of a selective dopamine D2 partial agonist, D3 antagonist displaying high levels of brain exposure” (Bioorg Med Chem Lett, 2010)
